This is an account of results in paper PMC6466596, “New Chloramphenicol Derivatives from the Viewpoint of Anticancer and Antimicrobial Activity” (Antibiotics, 2019).

As usually defined, the EC50 is the midpoint of the concentration-response curve. The term Ki denotes the equilibrium dissociation constant of an inhibitor or competing ligand from its target.

Where two headings read alike, the source gives them in different places.

One data set concerns Escherichia coli ΔTolC. The experiment in a line: In vivo antibacterial activity (growth inhibition in LB culture, OD560). It is filed as cell-based. The conditions noted are these: read-out: EC50 Escherichia coli ΔTolC. Here is the method: (§1) The in vivo antibacterial activity of the conjugates was determined using the following three bacterial strains: wild-type Escherichia coli K12 (E. coli K12), Escherichia coli ΔTolC mutant strain (E. coli ΔTolC) lacking the TolC protein, which is involved in the efflux pumps operation, and wild-type Staphylococcus aureus (S. aureus). The anti-tumor activity of the conjugates was assessed using the human ZL34 and MeT5A cell lines, which were kindly offered by Professor G. Stathopoulos (University of Patras). ZL34 are cancer cells, derived from malignant pleural mesothelioma, while MeT5A are immortalized cells, which originate from healthy mesothelial tissue.
(§2) For the experimental procedures, the bacteria were cultured in luria broth (LB) medium (tryptone 10 g/L, yeast extract 5 g/L, NaCl 10 g/L) as previously described. The bacteria cultures were grown in the presence of CAM or each conjugate at increasing concentration (1–100 μM). The cultures were incubated at 37 °C until the absorbance (OD560) of the reference culture in the absence of antibiotic reached the value of 0.7. At this point, the growth of the cultures was terminated by placing them in an ice bath, and the measurement of the optical density followed. These measurements were used to calculate the half-maximal effective concentration (EC50) values.

In the next data set the test system is Escherichia coli K12. The data set is described as above. It is filed as cell-based. The conditions noted are these: K12, read-out: EC50 Escherichia coli K12. Here is the method:
as §1, §2

Another data set relates to Staphylococcus aureus. The description is as above. The format is cell-based. The conditions noted are these: read-out: EC50 Staphylococcus aureus. Here is the method:
as §1, §2

A further data set concerns E. coli 70S ribosome. Kind of data set: Competition with [14C]-chloramphenicol for binding to the ribosome (filter binding). The conditions noted are these: calculated from IC50 by Cheng–Prusoff; [14C]-CAM constant at 10 μM; read-out: Ki (binding affinity constant). Here is the method: Reassociated 70S ribosomes were prepared from E. coli K12 cells as described previously. 70S ribosomes were incubated in buffer A (100 mM Tris-HCl pH 7.2, 100 mM ammonium acetate, 10 mM magnesium acetate, 6 mM β-mercaptoethanol) with 10 μΜ [^14C]-chloramphenicol (150 dpm/pmol) at a final concentration of 0.20 μM [23]. After incubation for 10 min at 37 °C, the mixture was diluted with 3 mL of cold buffer A and filtered through a 25-mm diameter cellulose nitrate membrane filter (Millipore 0.45 μm pore size). The filter was washed three times with 3 mL of cold buffer A and the radioactivity which remained bound on the filter was measured. The binding of [^14C]-chloramphenicol was studied in competition with CAM or PA–CAM conjugates by keeping the concentration of [^14C]-CAM constant (10 μM) and increasing the concentration of non-radioactive conjugates.
To clarify whether the new PA–CAM conjugates maintain their binding site on the 70S bacterial ribosome, we carried out competition experiments. […] The affinity constants, Ki, were calculated using the following Cheng–Prusoff relationship (1) and their values are presented in Table 3. According to the values of Table 3, the decrease of the affinity for 70S ribosome follows the order 3>7>4>6>CAM>5. (1) Ki=IC50/1+[I]/KD where [I] is the concentration of [^14C]-CAM (constant at 10 μM) and KD is the dissociation constant of ribosome–chloramphenicol complex formation.

The next data set has as its system ZL34 cells. Kind of data set: Quantification of intracellular levels of conjugates and polyamines by RP-HPLC-DAD. It is filed as cell-based, human. The conditions noted are these: ZL34 cells treated with 60 μΜ of compound; for Intracellular compound concentration: mean ± SD, three repetitions. Here is the method: (§3) PAs and conjugates 3 and 4 in ZL34 and Met5A cells were determined by reverse phase high-performance liquid chromatography (RP-HPLC-DAD), as described previously. Briefly, 100 mg cells (wet weight), either ZL34 or Met5A, which were grown in the presence of 60 μΜ of conjugates, were washed and then homogenized in 0.6 M HClO4. Cultures grown in the absence of the conjugates were used as reference. In the isolates, hexamethylenediamine dihydrochloride was added as an internal standard, followed by dansylation and subsequent extraction by toluene. The extracts were dried, reconstituted in acetonitrile/10 mM phosphate buffer pH 4.4 (45:55 v/v) and filtered through a 0.2-μm membrane (Spartan 13/0.2 RC Whatman GmbH, Dassel, Germany) prior to HPLC analysis. The HPLC system included a Varian Star 9010 solvent delivery system with a 250 × 4.6 mm Luna 5 μm C18(2) 100 A column (Phenomenex Co., USA) and a photodiode array detector (Shimadzu SPDM20A).
(§4) The flow rate was set at 1.0 mL/min. Polyamines were quantified at 258 nm and the conjugates at 275 nm. The detection limits for PUT, SPD, and SPM were 52 pmol, 18 pmol, and 36 pmol at 258 nm, respectively. The detection limits for compounds 3 and 4 were 25 pmol and 30 pmol at 275 nm, respectively. All experiments were run in triplicate. The coefficients of variation (C.V.) of the intra-assays were 5–7%, while those of the inter-assays ranged from 13 to 17%. LC Solution Software (Shimadzu) was used for data processing and the results were expressed as nmol/mg protein.

Another data set relates to Met5A cells. The description is as above. The format is cell-based, human. The conditions noted are these: Met5A cells treated with 60 μΜ of compound; for Intracellular compound concentration: mean ± SD, three repetitions. How it is done: as §3, §4
Data set [1] has as its system mitochondrial cytochrome c oxidase subunit II (COX2) in ZL34 cells. The experiment in a line: Immunoblotting of COX2 (mitochondrial protein synthesis). It is filed as cell-based, human. The conditions noted are these: 60 μΜ, 48 h; normalized to actin; result in words. How it is done: (§5) Cell lysates were prepared after treatment with 60 μΜ of conjugates for 48 h. Total cellular proteins were isolated at 4 °C using RIPA buffer (ABCAM) and mixed with 4% SDS-containing loading buffer. Protein concentrations were determined using Bradford assay. Lysates ([…]) were reduced in Laemmli buffer containing 1 mM dithiothreitol, resolved by 10% SDS-PAGE and electrotransfered to Immobilon-P PVDF membranes (Millipore, Massachusetts, USA) according to standard procedures. Blots were incubated at 4 °C overnight with rabbit monoclonal antibody against mitochondrial cytochrome c oxidase subunit II (COX2) (anti-mtCO2 antibody, ABCAM) at a 1:1000 dilution in blocking buffer. After washing with TBS-Tween and incubation with secondary antibody coupled to horse radish peroxidase, protein bands were visualized with ECL^TM chemiluminescence reagent (Amersham) and detected by autoradiography. The intensity of bands was quantified by Image Analysis, using the Image-Pro Plus 7 software (Media Cybernetics). Blots were re-probed with a mouse anti-actin antibody (Santa Cruz Biotechnology) to verify equal protein loading.

Data set [2] has as its system mitochondrial cytochrome c oxidase subunit II (COX2) in Met5A cells. The data set is described as above. The conditions noted are these: 60 μΜ, 48 h; compared to ZL34; result in words. The format is cell-based, human. Here is the method: as §5
Data set [3] deals with Met5A mesothelial immortalized cells. It is filed as cell-based, human. How it is done:
as §1
(§6) The antitumor activity of the conjugates was assessed using the human ZL34 and MeT5A cell lines as previously described. ZL34 and Met5A cells were plated in sterile 6-well microtiter plates and grown in Dulbecco’s modified Eagle’s medium (DMEM), supplemented with 10% heat-inactivated fetal bovine serum and 1% penicillin/streptomycin. Cultures were maintained in a humidified atmosphere with 5% CO2 at 37 °C. Compounds 3 and 4 were added at final concentrations of 30 and 60 μΜ, and then cells were grown for 24, 72 and 96 h. In parallel, solutions of conjugates combined with a ten-fold concentration of SPD were incubated under the same conditions. After treatment, the drug was removed by washing the cells twice with phosphate-buffered saline (PBS). The cells were then trypsinized (0.5 mL trypsin-EDTA×1 solution/well, 5 min at 37 °C), mixed with 1 mL DMEM and collected by centrifugation at 3000 × g for 5 min. Cell viabilities were determined by the trypan blue exclusion assay, using a TC10 automated cell counter (BIORAD). Viable cells were expressed as a percentage of total cells.

Another data set has as its system ZL34 mesothelioma cells. The format is cell-based, human. How it is done:
as §1, §6

Where [4] appears, read: wild-type strain, mean ± SD, three independent experiments.

As to `O=C(N[C@H](CO)[C@H](O)c1ccc([N+](=O)[O-])cc1)C(Cl)Cl` [CAM, Chloramphenicol], the EC50 in the data set on Escherichia coli ΔTolC is 2.3 ± 0.6 µM; in the data set with Escherichia coli K12, 6.2 ± 0.5 µM; with Staphylococcus aureus, 3.4 ± 0.3 µM. In the data set on E. coli 70S ribosome, the Ki is 1.5 ± 0.1 µM.
As for `NCCCN(CCCCN(Cc1ccccc1)Cc1ccccc1)C(=O)CCC(=O)N[C@H](CO)[C@H](O)c1ccc([N+](=O)[O-])cc1` [Compound 3], the EC50 in the data set with Escherichia coli ΔTolC is 8.9 ± 0.7 µM. Also, the EC50 in the data set on Escherichia coli K12 was determined as 11 ± 0.9 µM. Also, the EC50 in the data set with Staphylococcus aureus (setting [4]) is 6.8 ± 0.5 µM. In addition, the Ki in the data set on E. coli 70S ribosome was 0.8 ± 0.1 µM. In addition, in the data set with ZL34 cells, the PUT intracellular level is on record as 1.58 ± 0.13 nmol/mg Protein, the SPD intracellular level is listed as 4.18 ± 1.87 ^1 nmol/mg Protein, the SPM intracellular level is on record as 2.71 ± 1.17 ^2 nmol/mg Protein and the Intracellular compound concentration is listed as 5.96 ± 0.92 μΜ. In addition, in the data set with Met5A cells, the PUT intracellular level is listed as 7.38 ± 1.93 nmol/mg Protein, the SPD intracellular level came out at 7.38 ± 1.85 nmol/mg Protein, the SPM intracellular level came out at 22.50 ± 3.11 nmol/mg Protein and the Intracellular compound concentration turned out to be 3.75 ± 0.60 μΜ. The “COX2 expression in tumor cells (ZL34)” value in data set [1] is “significant decrease”. Further, the “COX2 levels in Met5A cells” value in [2] was “affected to a lesser extent”.
In the case of `O=C(CCC(=O)N(CCCCN(Cc1ccccc1)Cc1ccccc1)CCCN(Cc1ccccc1)Cc1ccccc1)N[C@H](CO)[C@H](O)c1ccc([N+](=O)[O-])cc1` [Compound 4], the EC50 in the data set with Escherichia coli ΔTolC is over 200 µM. Moreover, in the data set on Escherichia coli K12, the EC50 is over 200 µM. The EC50 in the data set on Staphylococcus aureus (setting [4]) was over 200 µM. Moreover, in data set [3], the “Cytotoxicity on immortalized Met5A cells” value is recorded as “milder action”. Besides, the “Cytotoxicity / antiproliferative activity on ZL34 cancer cells” value in the data set on ZL34 mesothelioma cells is listed as “demonstrated cytotoxicity”. Besides, in the data set with E. coli 70S ribosome, the Ki is 1.1 ± 0.1 µM. In the data set with ZL34 cells, the PUT intracellular level was found to be 2.07 ± 0.91 nmol/mg Protein, the SPD intracellular level is 5.36 ± 2.15 ^1 nmol/mg Protein, the SPM intracellular level is listed as 3.17 ± 1.70 ^2 nmol/mg Protein and the Intracellular compound concentration worked out at 29.00 ± 2.53 μΜ. In the data set with Met5A cells, this compound displayed a PUT intracellular level of 5.60 ± 1.10 nmol/mg Protein, an SPD intracellular level of 8.14 ± 2.16 nmol/mg Protein, an SPM intracellular level of 25.80 ± 6.57 nmol/mg Protein and an Intracellular compound concentration of 7.40 ± 0.80 μΜ. Further, in data set [1], the “COX2 expression in tumor cells (ZL34)” value is “significant decrease”. For the same compound, in [2], the “COX2 levels in Met5A cells” value is “affected to a lesser extent”.
As to `O=C(CCC(=O)N[C@H](CO)[C@H](O)c1ccc([N+](=O)[O-])cc1)NCCCCN(Cc1ccccc1)Cc1ccccc1` [Compound 5], the EC50 with Escherichia coli ΔTolC, with Escherichia coli K12 and in the data set on Staphylococcus aureus (setting [4]) was over 200 µM throughout. Besides, in the data set on ZL34 mesothelioma cells, the “Cytotoxicity / antiproliferative activity on ZL34 cancer cells” value is “did not show any important antiproliferative activity”. The Ki with E. coli 70S ribosome was 2.6 ± 0.3 µM.
`O=C(CCC(=O)N[C@H](CO)[C@H](O)c1ccc([N+](=O)[O-])cc1)NCCCCCCN(Cc1ccccc1)Cc1ccccc1` [Compound 6]: the EC50 in the data set with Escherichia coli ΔTolC, in the data set with Escherichia coli K12 and in the data set with Staphylococcus aureus (setting [4]) was over 200 µM in each case. In addition, the “Cytotoxicity / antiproliferative activity on ZL34 cancer cells” value in the data set with ZL34 mesothelioma cells was “did not show any important antiproliferative activity”. Also, in the data set on E. coli 70S ribosome, the Ki is 1.3 ± 0.2 µM.
`O=C(CCC(=O)N[C@H](CO)[C@H](O)c1ccc([N+](=O)[O-])cc1)NCCCN(Cc1ccccc1)Cc1ccccc1` [Compound 7]: the concentration giving a half-maximal response (EC50) in the data set on Escherichia coli ΔTolC, in the data set with Escherichia coli K12 and in the data set on Staphylococcus aureus (setting [4]) was over 200 µM each time. In addition, the “Cytotoxicity / antiproliferative activity on ZL34 cancer cells” value in the data set on ZL34 mesothelioma cells is “did not show any important antiproliferative activity”. In addition, the Ki in the data set on E. coli 70S ribosome was 1 ± 0.1 µM.
